In the supplement of paper PMC11208160:

Experiment: recombinant UMI read abundance after kanamycin selection (control-corrected) (log10(CPM+1)); higher = more efficient recombination; extreme values may be limits of the assay; sequences stand for … in AGTGCAGAGAAAATCGGCCAGTTTTCTCTGCCTGCAGTCCGCATGCCGTGGGACCCCTTGGGTTCTAACCTGTTGCCTAGATTTATGCAGCGGACTGCCTTTCTCCCAAAGTGATAAACCGG…AGGTTGGTTTCACT; site = the 11-nt donor
Outline: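 In Escherichia coli, a pool of donor and donor-binding-loop pairs, each with a 12-nt UMI, was tested for the IS621 bridge recombinase. Plating was on IPTG (0.07 mM) plus kanamycin, or without selection, in two replicates. Recombinant UMIs were amplified by PCR across the donor–target junction and sequenced, and counts were reported as log10(CPM+1) after averaging and control-derived scaling.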
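Also: IS621 bridge recombinase in Escherichia coli cells against a fixed T5 target plasmid.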

Sequence	recombinant UMI read abundance (log10)
TCGTTTCCATGGACCGGTTTTCCCGGTAATCCGTATTTGTA (site TCGTTTCCTTA)	1.36
TCTAACCCATGGACCGGTTTTCCCGGTAATCCGTATTTGCA (site TCTAACCCTTG)	0
TCTACACCATGGACCGGTTTTCCCGGTAATCCGTATTTGAC (site TATACACCTGT)	0.00982
TCTACACCATGGACCGGTTTTCCCGGTAATCCGTATTTGAC (site TCTACACCTGT)	0
TCTACACCATGGACCGGTTTTCCCGGTAATCCGTATTTGAC (site TGTACACCTGT)	0
TCTACACCATGGACCGGTTTTCCCGGTAATCCGTATTTGAC (site TTTACACCTGT)	0
TCTACGTCATGGACCGGTTTTCCCGGTAATCCGTATTTGTC (site TCTACGTCTGA)	0
TCTACTGCATGGACCGGTTTTCCCGGTAATCCGTATTTGCC (site ACTACTGCTGG)	0
TCTACTGCATGGACCGGTTTTCCCGGTAATCCGTATTTGCC (site CCTACTGCTGG)	0
TCTACTGCATGGACCGGTTTTCCCGGTAATCCGTATTTGCC (site GCTACTGCTGG)	0
TCTACTGCATGGACCGGTTTTCCCGGTAATCCGTATTTGCC (site TCTACTGCTGG)	0
TCTAGATCATGGACCGGTTTTCCCGGTAATCCGTATTTGCA (site TCTAGATCTTG)	0
TCTAGGTCATGGACCGGTTTTCCCGGTAATCCGTATTTGTT (site TCTAGGTCTAA)	0
TCTAGTTCATGGACCGGTTTTCCCGGTAATCCGTATTTGTG (site TCTAGTTCTCA)	0.0111
TCTATAACATGGACCGGTTTTCCCGGTAATCCGTATTTGCT (site TCTATAACTAG)	0
TCTGAGCCATGGACCGGTTTTCCCGGTAATCCGTATTTGAT (site TCTGAGCCTAT)	0.00231
TCTGAGCCATGGACCGGTTTTCCCGGTAATCCGTATTTGTT (site TCTGAGCCTAA)	0.0283
TCTGCGGCATGGACCGGTTTTCCCGGTAATCCGTATTTGCT (site TATGCGGCTAG)	0.0269
TCTGCGGCATGGACCGGTTTTCCCGGTAATCCGTATTTGCT (site TCTGCGGCTAG)	0.246

Sequence	recombinant UMI read abundance (log10)
TCTGCGGCATGGACCGGTTTTCCCGGTAATCCGTATTTGCT (site TGTGCGGCTAG)	0.0168
TCTGCGGCATGGACCGGTTTTCCCGGTAATCCGTATTTGCT (site TTTGCGGCTAG)	0.0104
TCTGCTACATGGACCGGTTTTCCCGGTAATCCGTATTTGGT (site TCTGCTACTAC)	0.0161
TCTGTGGCATGGACCGGTTTTCCCGGTAATCCGTATTTGCC (site TCTGTGGCTGG)	0
TCTTAACCATGGACCGGTTTTCCCGGTAATCCGTATTTGTG (site TCTTAACCTCA)	0.0128
TCTTACCCATGGACCGGTTTTCCCGGTAATCCGTATTTGCA (site TCTTACCCTTG)	0
TCTTACGCATGGACCGGTTTTCCCGGTAATCCGTATTTGGC (site TCTTACGCTGC)	0
TCTTCAACATGGACCGGTTTTCCCGGTAATCCGTATTTGTG (site TCTTCAACTCA)	0.0171
TCTTCTACATGGACCGGTTTTCCCGGTAATCCGTATTTGAC (site TCTTCTACTGT)	0
TCTTCTGCATGGACCGGTTTTCCCGGTAATCCGTATTTGAT (site TCTTCTGCTAT)	0
TCTTTACCATGGACCGGTTTTCCCGGTAATCCGTATTTGGG (site TCTTTACCTCC)	0.0231
TCTTTACCATGGACCGGTTTTCCCGGTAATCCGTATTTGTA (site TCTTTACCTTA)	0.00582
TCTTTGGCATGGACCGGTTTTCCCGGTAATCCGTATTTGTG (site TATTTGGCTCA)	0.0246
TCTTTGGCATGGACCGGTTTTCCCGGTAATCCGTATTTGTG (site TCTTTGGCTCA)	0.0151
TCTTTGGCATGGACCGGTTTTCCCGGTAATCCGTATTTGTG (site TGTTTGGCTCA)	0.0149
TCTTTGGCATGGACCGGTTTTCCCGGTAATCCGTATTTGTG (site TTTTTGGCTCA)	0.0253
TGAAAATCATGGACCGGTTTTCCCGGTAATCCGTATTTGAT (site TGAAAATCTAT)	0
TGAAAGACATGGACCGGTTTTCCCGGTAATCCGTATTTGCA (site AGGAAGACTTG)	2.91
